Test results from PubChem BioAssay (NCI).
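48-hour exposure; five concentrations; linearly interpolated endpoints. At the GI50, growth is halved. At the TGI there is no net growth.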

Assays:
Assay in all cases: NCI anticancer screen, dose series, 48 h
KM12 colon = system: KM12 colon
786-0 renal = system: 786-0 renal
K-562 leukemia = system: K-562 leukemia
SN12C renal = system: SN12C renal
SK-MEL-5 melanoma = system: SK-MEL-5 melanoma
SK-MEL-28 melanoma = system: SK-MEL-28 melanoma
UACC-62 melanoma = system: UACC-62 melanoma
NCI-H226 lung = system: NCI-H226 lung
HOP-92 NSCLC = system: HOP-92 NSCLC
ACHN renal = system: ACHN renal

Row | Compound | TGI (KM12 colon) [µM] | TGI (786-0 renal) [µM] | TGI (K-562 leukemia) [µM] | TGI (SN12C renal) [µM] | TGI (SK-MEL-5 melanoma) [µM] | TGI (SK-MEL-28 melanoma) [µM] | TGI (UACC-62 melanoma) [µM] | TGI (NCI-H226 lung) [µM] | TGI (HOP-92 NSCLC) [µM] | TGI (ACHN renal) [µM] | GI50 (KM12 colon) [µM] | GI50 (786-0 renal) [µM] | GI50 (K-562 leukemia) [µM] | GI50 (SN12C renal) [µM] | GI50 (SK-MEL-5 melanoma) [µM] | GI50 (SK-MEL-28 melanoma) [µM] | GI50 (UACC-62 melanoma) [µM] | GI50 (NCI-H226 lung) [µM] | GI50 (HOP-92 NSCLC) [µM] | GI50 (ACHN renal) [µM]
1 | CN(C=O)/C=C/c1cc(O)ccc1O | > 100 | 33.7 | 62.1 | 44.3 | > 66.9 | > 58.3 | 46.9 | > 78.7 | 34.8 | 29.7 |  |  |  |  |  |  |  |  |  | 
2 | CC/C=C\C/C=C\C[C@H](O)C/C=C1/C(=O)C=C[C@@H]1C/C=C\CCCC(=O)OC | 5.02 | 3.52 | 12.5 | 5.01 | 2.93 | 4 | 2.85 | 3.79 | 6.02 | 3.4 | 1.8 | 1.82 | 0.546 | 1.9 | 1.54 | 1.78 | 0.714 | 1.92 | 2.62 | 1.72
3 | CC(=O)C1C(=O)N(C(C)C)C[C@@H]2CCC(=O)C[C@H]12 (some centres undefined) | > 100 | > 100 | > 100 | > 100 | > 100 | > 100 | > 100 |  | > 100 |  |  |  |  |  |  |  |  |  |  | 
4 | OCNCCNc1nc2ccccc2c2[nH]c3ccccc3c12 | 7.37 | 2.35 | 42.8 | 3.66 | 4.09 | 6.84 | 7.5 | 5.88 |  | 2.24 | 1.54 | 0.34 | 1.55 | 1.26 | 1.28 | 1.01 | 2 | 1.47 |  | 0.38
5 | CNC(=O)CN(CC(N)=O)C(N)=O | > 100 | > 100 | > 100 |  | > 100 | > 100 | > 100 | > 100 | > 100 | > 100 |  |  |  |  |  |  |  |  |  | 
6 | O=C1CN(/N=C/c2ccc(-c3ccc(F)cc3)o2)C(=O)N1 | > 100 | > 100 | > 100 | > 100 | > 100 | 83.6 | > 100 | 88.5 | 57.8 | > 100 |  |  |  |  |  |  |  |  |  | 
7 | CCOc1ccc(C(CN2CCOCC2)C(C)=O)cc1OC (centres undefined) | 29 | 15.7 | 13.9 | 31.2 | 35.2 | 35.8 | 32.8 | 32.4 | 35.7 | 27.3 |  |  |  |  |  |  |  |  |  | 
8 | C/C=C1\C(=O)OC2CCN3CCC(COC(=O)C(C)(O)C(C)C1O)C23 (centres undefined) | > 100 | > 100 | > 100 | > 100 | > 100 | > 100 | > 100 | > 100 | > 100 | > 100 |  |  |  |  |  |  |  |  |  | 
9 | CC1CC2(C)CC(=O)C1C1C(=O)N(CCN3CCCCC3)C(=O)C12 (centres undefined) | > 100 | > 100 | > 100 | > 100 | > 100 |  | > 100 | > 100 | > 100 | > 100 | > 100 | > 100 | > 100 | > 100 | > 100 |  | > 100 | > 100 | > 100 | > 100
10 | CC1(C)CC[C@]2(C(N)=O)CC[C@]3(C)C(=CC[C@@H]4[C@@]5(C)C/C(=C/c6ccncc6)C(=O)C(C)(C)[C@@H]5CC[C@]43C)[C@@H]2C1 | 3.41 | 7.62 | 6.71 | 3.67 | 3.27 | 3.39 | 3.34 |  | 4.77 | 4.33 | 1.79 | 2.25 | 2.28 | 1.82 | 1.77 | 1.81 | 1.61 |  | 1.76 | 2.02
11 | COc1ccc(OC)c2c3c(ccc12)C(c1ccccc1)OC3=O (centres undefined) | > 100 | > 100 | > 100 | > 100 | > 100 | > 100 | > 100 | > 100 |  | > 100 |  |  |  |  |  |  |  |  |  | 
12 | COC(=O)c1c(C)nc(C)c(NO)c1-c1ccccc1C(F)(F)F | > 100 | 30.2 | > 100 | 62.4 | > 100 | 38.1 | > 100 | 76.7 | 29 | 71.6 |  |  |  |  |  |  |  |  |  | 
13 | CCOC(=O)C(NC(=O)c1[nH]cnc1/N=N/N(C)C)C(C)C (centres undefined) | > 100 | > 100 | > 100 | > 100 | > 100 | > 100 | > 100 | > 100 |  | > 100 |  |  |  |  |  |  |  |  |  | 
14 | CC1=C(C(=O)Nc2ccc(Cl)c(Cl)c2)C(c2ccccc2O)NC(=O)N1 (centres undefined) | > 50 | > 50 | > 50 | > 50 | > 50 | > 50 | > 50 | > 50 | > 50 | > 50 | 16.9 | > 50 | 26 | 34.6 | 22.5 | > 50 | 35.1 | 21.3 | > 50 | > 50
15 | Cc1c(C(=O)CSc2nc3ccccc3[nH]2)c(=O)n(-c2ccccc2)n1C | > 100 | > 100 |  | > 100 | > 100 | > 100 |  | > 100 | > 100 | > 100 |  |  |  |  |  |  |  |  |  | 
16 | CCCCCCCCCCCCOP(N)(=O)OCCCCCCCCCCCC |  | > 100 | > 100 | > 100 |  | > 100 | > 100 |  |  | > 100 |  |  |  |  |  |  |  |  |  | 
17 | CN1CCc2c1nc(-c1ccc([N+](=O)[O-])cc1)c1c2N(C)CC1 | > 100 | > 100 | > 100 | > 100 | > 100 |  | > 100 |  | > 100 | > 100 |  |  |  |  |  |  |  |  |  | 
18 | FC1OC2OC1C(OCc1ccccc1)C(OCc1ccccc1)C2OCc1ccccc1 (centres undefined) | > 100 | > 100 | 75.1 | > 100 | > 100 | > 100 | > 100 | > 100 | 64 |  |  |  |  |  |  |  |  |  |  | 
19 | CC(=O)OC1CC2C(=O)C(=O)C1(C)C2(C)C (centres undefined) |  | > 100 | > 100 | > 100 | > 100 | > 100 | > 100 | > 100 | > 100 | > 100 |  |  |  |  |  |  |  |  |  | 
